Experimental data from ChEMBL document CHEMBL1151376, “Inhibition of Mitochondrial Function in Termite Queen Ovary by Rabdosia Diterpenoids” (J Nat Prod, 1981).

Assays:
Type in all cases: functional
Details in all cases: Female gonad
Macrotermes subhyalinus [1] = test: Effect on oxygen consumption in Macrotermes subhyalinus ovary mitochondria assessed as inhibition of state 3 respiration assessed oxygen atom per mg protein per min at 100 uM by polarographic analysis
Macrotermes subhyalinus [2] = test: Effect on oxygen consumption in Macrotermes subhyalinus ovary mitochondria assessed as inhibition of state 4 respiration assessed oxygen atom per mg protein per min at 100 uM by polarographic analysis
Macrotermes subhyalinus [3] = test: Effect on oxygen consumption in Macrotermes subhyalinus ovary mitochondria assessed as inhibition of state 4U respiration assessed oxygen atom per mg protein per min at 100 uM in presence of 2,4-dinitrophenol by polarographic analysis
Macrotermes subhyalinus [4] = test: Inhibition of oxidative phosphorylation in Macrotermes subhyalinus ovary mitochondria assessed as respiratory control ratio assessed oxygen atom per mg protein per min at 100 uM
Macrotermes subhyalinus [5] = test: Inhibition of oxidative phosphorylation in Macrotermes subhyalinus ovary mitochondria assessed as ADP/O ratio at 100 uM
Macrotermes subhyalinus [6] = test: Effect on phosphorylation rate in Macrotermes subhyalinus ovary mitochondria assessed as nmoles ATP synthesized per mg protein per min at 100 uM
Macrotermes subhyalinus [7] = test: Effect on oxygen consumption in Macrotermes subhyalinus ovary mitochondria assessed as inhibition of state 3 respiration assessed oxygen atom per mg protein per min at 250 uM by polarographic analysis
Macrotermes subhyalinus [8] = test: Effect on oxygen consumption in Macrotermes subhyalinus ovary mitochondria assessed as inhibition of state 4 respiration assessed oxygen atom per mg protein per min at 250 uM by polarographic analysis
Macrotermes subhyalinus [9] = test: Effect on oxygen consumption in Macrotermes subhyalinus ovary mitochondria assessed as inhibition of state 4U respiration assessed oxygen atom per mg protein per min at 250 uM in presence of 2,4-dinitrophenol by polarographic analysis
Macrotermes subhyalinus [10] = test: Inhibition of oxidative phosphorylation in Macrotermes subhyalinus ovary mitochondria assessed as respiratory control ratio assessed oxygen atom per mg protein per min at 250 uM
Macrotermes subhyalinus [11] = test: Inhibition of oxidative phosphorylation in Macrotermes subhyalinus ovary mitochondria assessed as ADP/O ratio at 250 uM
Macrotermes subhyalinus [12] = test: Effect on phosphorylation rate in Macrotermes subhyalinus ovary mitochondria assessed as nmoles ATP synthesized per mg protein per min at 250 uM

## C=C1C(=O)[C@]23C[C@H]1CC[C@H]2[C@@]12CO[C@@H](O)[C@@H]1C(C)(C)[C@@H](O)C[C@@H]2OC3=O
Macrotermes subhyalinus [1]
  Activity: 115
Macrotermes subhyalinus [2]
  Activity: 33.6
Macrotermes subhyalinus [3]
  Activity: 104
Macrotermes subhyalinus [4]
  Ratio: 3.41
Macrotermes subhyalinus [5]
  Ratio: 1.62
Macrotermes subhyalinus [6]
  Activity: 186

## C=C1C(=O)[C@]23C[C@H]1C[C@@H](O)[C@H]2[C@@]12CO[C@@H](O)[C@@H]1C(C)(C)CC[C@@H]2OC3=O
Macrotermes subhyalinus [7]
  Activity: 94.8
Macrotermes subhyalinus [8]
  Activity: 41.2
Macrotermes subhyalinus [9]
  Activity: 61.8
Macrotermes subhyalinus [10]
  Ratio: 2.3
Macrotermes subhyalinus [11]
  Ratio: 1.79
Macrotermes subhyalinus [12]
  Activity: 170

## C=C1C(=O)[C@]23[C@H](O)[C@H]1CC[C@H]2[C@@]12CO[C@]3(O)[C@@H](O)[C@@H]1C(C)(C)CC[C@@H]2O
Macrotermes subhyalinus [1]
  Activity: 118
Macrotermes subhyalinus [2]
  Activity: 32.4
Macrotermes subhyalinus [3]
  Activity: 106
Macrotermes subhyalinus [4]
  Ratio: 3.63
Macrotermes subhyalinus [5]
  Ratio: 1.33
Macrotermes subhyalinus [6]
  Activity: 156

## C=C1C(=O)[C@]23C[C@H]1C[C@H](O)[C@H]2[C@]1(COC(C)=O)[C@H](CCC(C)(C)[C@H]1C=O)OC3=O
Macrotermes subhyalinus [1]
  Activity: 118
Macrotermes subhyalinus [2]
  Activity: 44.2
Macrotermes subhyalinus [3]
  Activity: 41.2
Macrotermes subhyalinus [4]
  Ratio: 2.66
Macrotermes subhyalinus [5]
  Ratio: 1.03
Macrotermes subhyalinus [6]
  Activity: 121
